Assay results: US20250270222A1, “AP2 ASSOCIATED KINASE 1 INHIBITORS AND USES THEREOF” (Satellos Bioscience Inc., priority 2023, published 2025)

Experiments:
[1] = biological target: AAK1 (amino acids T27-A365) (Homo sapiens (Human), UniProt Q2M2I8); experiment: AAK1 pSENs assay; type: biochemical; conditions: ratio of AAK1 pSENs activity to GAK pSENs activity
Description: (§1) The recombinant proteins were independently expressed in Esherichia coli BL21(DE3) cells cultured in Luria-Bertani (LB) medium until OD600 reached 0.6-0.8, then cooled to 15° C., and supplemented with 0.5 mM isopropyl 1-thio-D-galactopyranoside (IPTG) induce protein expression 16 h. Cells were harvested and resuspended in lysis buffer (50 mM HEPES pH 7.5, 500 mM NaCl, 5 mM imidazole, 5% glycerol, 0.5 mM Tris (2-carboxyethyl) phosphine (TCEP), cOmplete Protease Inhibitor Tablet (Roche)) and lysed by microfluidics high pressure homogenizer (UH-06, Union-Biotech). Proteins were purified using Ni-Affinity chromatography (His FF column, Bestchrom) and eluted stepwise in binding buffer with 20-300 mM imidazole. Removal of the hexahistidine tag was performed at 4° C. overnight using recombinant TEV protease and reacted with BirA to obtain the corresponding biotinylated-AAK1. BIKE or GAK proteins. Further separated in the reverse Strep column (Strep-Tactin® XT, IBA). The Biotin elution sample was collected containing untagged biotinylated protein was then purified by Ion-exchange chromatography (Mono Q 10/100 GL, Cytiva) and Size-exclusion chromatography (HiLoad 16/600 Superdex 200 pg, Cytiva). The pure protein was stored in a storage buffer 50 mM HEPES (pH 7.5), 300 mM NaCl, 5% glycerol at −80° C. Protein were characterized by SDS-PAGE. LC-MS and aSEC.
This example describes one illustrative method for determining the IC50 of the compounds of the present invention against AAK1 (amino acids T27-A365). AAK1 protein was dissolved at 20 nM in 1× enzyme solution (50 mM HEPES pH7.5, 10 mM MgCl2, 1 mM DTT, 1% glycerol, 0.5 mM EGTA, 0.01% Briji35, 0.02% BSA) and 12.5 ul was incubated with 250 nl DMSO or 250 nl compound in DMSO at 25° C. for 15 min. The reaction was started by addition of 12.5 ul of 30 uM AQT0759 (Assayquant, CSKS-AQT0759B) and 70 uM ATP which were diluted in 1× substrate dilution buffer (50 mM HEPES pH7.5, 10 mM MgCl2, 1 mM DTT, 1% glycerol, 0.5 mM EGTA, 0.01% Briji35).

[2] = biological target: GAK (amino acids Q25-N335) (Homo sapiens (Human), UniProt O14976); experiment: GAK pSENs assay; type: biochemical
Description: as §1
This example describes one illustrative method for determining the IC50 of the compounds of the present invention against GAK (amino acids Q25-N335).

Sequence of AAK1 (amino acids T27-A365) (Q2M2I8 27-365): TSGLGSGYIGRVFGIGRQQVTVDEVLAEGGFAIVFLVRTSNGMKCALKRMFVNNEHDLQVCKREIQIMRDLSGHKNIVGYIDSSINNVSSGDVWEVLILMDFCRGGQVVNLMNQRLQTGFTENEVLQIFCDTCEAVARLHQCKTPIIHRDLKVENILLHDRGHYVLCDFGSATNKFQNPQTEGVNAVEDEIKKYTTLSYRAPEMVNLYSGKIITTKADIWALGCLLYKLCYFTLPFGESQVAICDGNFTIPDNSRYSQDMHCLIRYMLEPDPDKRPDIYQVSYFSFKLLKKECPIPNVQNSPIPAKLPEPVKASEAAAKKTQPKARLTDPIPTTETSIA
Sequence of GAK (amino acids Q25-N335) (O14976 25-335): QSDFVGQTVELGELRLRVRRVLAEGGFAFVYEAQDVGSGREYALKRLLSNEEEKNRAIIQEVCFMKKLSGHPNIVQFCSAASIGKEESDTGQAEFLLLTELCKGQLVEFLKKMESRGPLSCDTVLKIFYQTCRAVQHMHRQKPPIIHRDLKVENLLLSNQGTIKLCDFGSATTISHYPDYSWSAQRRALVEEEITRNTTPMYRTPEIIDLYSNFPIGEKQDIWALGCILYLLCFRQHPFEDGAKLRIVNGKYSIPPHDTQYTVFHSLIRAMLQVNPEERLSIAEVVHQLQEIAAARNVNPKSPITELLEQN

Row | SMILES | AAK1:GAK pSENs Selectivity [1] | IC50 [2]
1 | CC1(OC(=O)N2CCN(c3ccn4ncc(-c5cccnc5OC5CC5)c4n3)CC2)COC1 [Compound I-2, (3-methyloxetan-3-yl)-4-[3-[2-(cyclopropoxy)-3-pyridyl]pyrazolo[1,5-a]pyrimidin-5-yl]piperazine-1-carboxylate] | A (A: ≤0.015) | > 1500 nM
2 | COc1ncccc1-c1cnn2ccc(N3CCN(C(=O)OC4CNC(=O)C4)CC3)nc12 (stereo not shown) [Compound I-6, (5-Oxopyrrolidin-3-yl) 4-[3-(2-methoxy-3-pyridyl)pyrazolo[1,5-a]pyrimidin-5-yl]piperazine-1-carboxylate] | A (A: ≤0.015) | > 1500 nM
3 | O=C1C[C@@H](OC(=O)N2CCN(c3ccn4ncc(-c5cccnc5OC5CC5)c4n3)CC2)CN1 [Compound I-10, [(3R)-5-Oxopyrrolidin-3-yl]-4-[3-[2-(cyclopropoxy)-3-pyridyl]pyrazolo[1,5-a]pyrimidin-5-yl]piperazine-1-carboxylate] | A (A: ≤0.015) | > 1500 nM
4 | O=C1C[C@H](OC(=O)N2CCN(c3ccn4ncc(-c5cccnc5OC5CC5)c4n3)CC2)CN1 [Compound I-11, [(3S)-5-Oxopyrrolidin-3-yl]-4-[3-[2-(cyclopropoxy)-3-pyridyl]pyrazolo[1,5-a]pyrimidin-5-yl]piperazine-1-carboxylate hydrochloric acid] | A (A: ≤0.015) | > 1500 nM
5 | CC1(OC(=O)N2CCN(c3ccn4ncc(-c5cccnc5OC5COC5)c4n3)CC2)COC1 [Compound I-18, (3-Methyloxetan-3-yl)-4-[3-[2-(oxetan-3-yloxy)-3-pyridyl]pyrazolo[1,5-a]pyrimidin-5-yl]piperazine-1-carboxylate] | A (A: ≤0.015) | > 1500 nM
6 | O=C1C[C@H](OC(=O)N2CCN(c3ccn4ncc(-c5cccnc5OC5COC5)c4n3)CC2)CN1 [Compound I-25, [(3S)-5-Oxopyrrolidin-3-yl]4-[3-[2-(oxetan-3-yloxy)-3-pyridyl]pyrazolo[1,5-a]pyrimidin-5-yl]piperazine-1-carboxylate] | A (A: ≤0.015) | > 1500 nM
7 | CC(C)Oc1ncccc1-c1cnn2ccc(N3CCN(C(=O)O[C@@H]4CNC(=O)C4)CC3)nc12 [Compound I-26, [(3S)-5-Oxopyrrolidin-3-yl]-4-[3-(2-isopropoxy-3-pyridyl)pyrazolo[1,5-a]pyrimidin-5-yl]piperazine-1-carboxylate] | A (A: ≤0.015) | > 1500 nM
8 | O=C(O[C@H]1CO[C@H]2OCC[C@H]21)N1CCN(c2ccn3ncc(-c4cccnc4OC4CC4)c3n2)CC1 [Compound I-27, [(3aS,4R,6aR)-2,3,3a, 4,5,6a-hexahydrofuro[2,3-b]furan-4-yl]-4-[3-[2-(cyclopropoxy)-3-pyridyl]pyrazolo[1,5-a]pyrimidin-5-yl]piperazine-1-carboxylate] | A (A: ≤0.015) | > 1500 nM
9 | CC(C)(C)OC(=O)N1CCC(N2C[C@@H](OC(=O)N3CCN(c4ccn5ncc(-c6cccnc6OC6CC6)c5n4)CC3)CC2=O)CC1 [Compound I-30, [(3S)-1-(1-tert-Butoxycarbonyl-4-piperidyl)-5-oxo-pyrrolidin-3-yl]4-[3-[2-(cyclopropoxy)-3-pyridyl]pyrazolo[1,5-a]pyrimidin-5-yl]piperazine-1-carboxylate] | A (A: ≤0.015) | > 1500 nM
10 | O=C(O[C@H]1CC(=O)N(C2CCNCC2)C1)N1CCN(c2ccn3ncc(-c4cccnc4OC4CC4)c3n2)CC1 [Compound I-32, [(3S)-5-Oxo-1-(4-piperidyl)pyrrolidin-3-yl]4-[3-[2-(cyclopropoxy)-3-pyridyl]pyrazolo[1,5-a]pyrimidin-5-yl]piperazine-1-carboxylate] | A (A: ≤0.015) | > 1500 nM
11 | CN1C[C@@H](OC(=O)N2CCN(c3ccn4ncc(-c5cccnc5OC5CC5)c4n3)CC2)CC1=O [Compound I-34] | A (A: ≤0.015) | > 1500 nM
